Results from patent US8299048B2, “Hexahydrocyclopentyl[f]indazole sulfonamides and derivatives thereof as selective glucocorticoid receptor modulators” (Merck Sharp & Dohme Corp., priority 2008, dated 2012).

Columns and labels:
human GR [1] = molecular target: T1, human GR (Homo sapiens, UniProt P04150); assay: Trans-Activation Modulation of Glucocorticoid Receptor (GRAMMER), MMTV-LUC reporter, agonist mode; format: cell-based; parameters: endogenous in cells; conditions: for Emax: A549, A549 cells, maximum activity, read-out: Transactivation A549 Cells GRAMMER Emax; for EC50: A549 cells, inflection point, read-out: Transactivation A549 Cells GRAMMER IP
T1 sequence (P04150 1-777): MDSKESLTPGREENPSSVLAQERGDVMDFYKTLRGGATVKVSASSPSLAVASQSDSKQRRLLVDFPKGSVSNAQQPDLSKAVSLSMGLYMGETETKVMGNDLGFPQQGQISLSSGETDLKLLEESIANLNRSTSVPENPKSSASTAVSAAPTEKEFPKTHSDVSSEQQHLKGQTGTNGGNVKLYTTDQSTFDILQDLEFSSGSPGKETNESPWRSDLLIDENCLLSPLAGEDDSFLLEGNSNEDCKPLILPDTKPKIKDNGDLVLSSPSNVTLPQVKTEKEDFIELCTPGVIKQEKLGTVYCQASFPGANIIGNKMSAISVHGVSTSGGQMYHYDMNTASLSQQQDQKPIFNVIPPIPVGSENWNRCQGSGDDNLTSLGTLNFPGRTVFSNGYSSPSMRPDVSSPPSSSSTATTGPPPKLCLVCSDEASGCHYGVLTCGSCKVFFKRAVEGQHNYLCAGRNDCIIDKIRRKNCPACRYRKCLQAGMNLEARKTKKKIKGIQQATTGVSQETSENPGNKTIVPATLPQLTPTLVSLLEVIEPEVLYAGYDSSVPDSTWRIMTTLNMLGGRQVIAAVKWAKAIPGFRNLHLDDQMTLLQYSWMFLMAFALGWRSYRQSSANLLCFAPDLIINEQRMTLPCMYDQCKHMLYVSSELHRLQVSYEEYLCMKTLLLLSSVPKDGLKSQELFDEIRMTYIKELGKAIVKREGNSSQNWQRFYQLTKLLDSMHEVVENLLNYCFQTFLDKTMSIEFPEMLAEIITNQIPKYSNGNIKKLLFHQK
How it was run: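 Readout is luciferase from a modified MMTV LTR promoter after 24 h compound exposure alongside 10 nM dexamethasone (100% activity reference), DMSO ≤1%.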

human GR [2] = molecular target: T1, human GR; assay: Transrepression Assay (GITAR), TNFα-β-lactamase reporter in U937 cells; format: cell-based; parameters: U937 cells contain an endogenous glucocorticoid receptor (GR); endogenous in cells; host or cells: U937 cells stably transfected with the TNF-alpha promoter/beta-lactamase reporter; conditions: for GITAR > GRAMM % SEP: GITAR Emax minus GRAMMER Emax; for EC50: U937 cells, inflection point, read-out: Transrepression U937 Cells GITAR IP
How it was run: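 U937 cells with endogenous GR, stably carrying TNFα promoter–β-lactamase, preincubated with compound 30–45 min at 37° C, then stimulated with PMA 5 ng/ml and LPS 100 ng/ml (final) ~18 hr. Read-out via CCF2-AM loading; repression by 100 nM dexamethasone set as 100%.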

[3] = U-937, U937 cells, maximum activity, read-out: Transrepression U937 Cells GITAR Emax
[4] = U-937, activity repressed by 100 nM dexamethasone alone set as 100%, read-out: maximal activity in the transrepression (GITAR) assay

Emax (human GR [1]) [%] | EC50 (human GR [1]) [nM] | GITAR > GRAMM % SEP (human GR [2]) [%] | EC50 (human GR [2]) [nM] | Emax (human GR [2]; [3]) [%] | Emax (human GR [2]; [4]) [%] | SMILES
23.2 | 422 | 50.8 | 791 | 74 | > 5 | C[C@]12Cc3cnn(-c4ccc(F)cc4)c3C=C1CC[C@@H]2CN(Cc1cccnn1)S(=O)(=O)CC(F)(F)F [Example 132, 2,2,2-trifluoro-N-{[(4αR,5S)-1-(4-fluorophenyl)-4α-methyl-1,4,4α,5,6,7-hexahydrocyclopenta[f]indazol-5-yl]methyl}-N-(pyridazin-3-ylmethyl)ethanesulfonamide]
73.4 | 67.5 | 22.5 | 82.6 | 95.9 | > 5 | C[C@]12Cc3cnn(-c4ccc(F)cc4)c3C=C1CC[C@@H]2CN(CC(O)C(F)F)S(=O)(=O)CC(F)(F)F (stereo partly drawn) [Example 133, N-(3,3-difluoro-2-hydroxypropyl)-2,2,2-trifluoro-N-{[(4αR,5S)-1-(4-fluorophenyl)-4α-methyl-1,4,4α,5,6,7-hexahydrocyclopenta[f]indazol-5-yl]methyl}ethanesulfonamide]
89.2 | 216 | 4.7 | 243 | 93.8 | > 5 | C[C@]12Cc3cnn(-c4ccc(F)cc4)c3C=C1CC[C@@H]2CN(CC(OS(=O)(=O)CC(F)(F)F)C(F)F)S(=O)(=O)CC(F)(F)F (stereo partly drawn) [Example 134, 2,2-difluoro-1-({{[(4αR,5S)-1-(4-fluorophenyl)-4α-methyl-1,4,4α,5,6,7-hexahydrocyclopenta[f]indazol-5-yl]methyl}[(2,2,2-trifluoroethyl)sulfonyl]amino}methyl)ethyl 2,2,2-trifluoroethanesulfonate]
68.8 | 127 | 19.2 | 258 | 87.9 | > 5 | C[C@]12Cc3cnn(-c4ccc(F)cc4)c3C=C1CC[C@@H]2CN(CC1(O)CC1)S(=O)(=O)CC(F)(F)F [Example 135, 2,2,2-trifluoro-N-{[(4αR,5S)-1-(4-fluorophenyl)-4α-methyl-1,4,4α,5,6,7-hexahydrocyclopenta[f]indazol-5-yl]methyl}-N-[(1-hydroxycyclopropyl)methyl]ethanesulfonamide]
58.8 | 279 | 42.0 | 441 | 101 | > 5 | C[C@]12Cc3cnn(-c4ccc(F)cc4)c3C=C1CC[C@@H]2CN(CC1(OS(=O)(=O)CC(F)(F)F)CC1)S(=O)(=O)CC(F)(F)F [Example 136, 1-({{[(4αR,5S)-1-(4-fluorophenyl)-4α-methyl-1,4,4α,5,6,7-hexahydrocyclopenta[f]indazol-5-yl]methyl}[(2,2,2-trifluoroethyl)sulfonyl]amino}methyl)cyclopropyl 2,2,2-trifluoroethanesulfonate]

Second part, the compound before the results:

SMILES | Emax (human GR [1]) [%] | EC50 (human GR [1]) [nM] | GITAR > GRAMM % SEP (human GR [2]) [%] | EC50 (human GR [2]) [nM] | Emax (human GR [2]; [3]) [%] | Emax (human GR [2]; [4]) [%]
Cc1noc(C)c1S(=O)(=O)N(CCc1ccccc1O)C[C@H]1CCC2=Cc3c(cnn3-c3ccc(F)cc3)C[C@@]21C [Example 123, N-{[(4αR,5S)-1-(4-fluorophenyl)-4α-methyl-1,4,4α,5,6,7-hexahydrocyclopenta[f]indazol-5-yl]methyl}-N-[2-(2-hydroxyphenyl)ethyl]-3,5-dimethylisoxazole-4-sulfonamide] | 65.4 | 195 | 25.4 | 128 | 90.8 | > 5
C[C@]12Cc3cnn(-c4ccc(F)cc4)c3C=C1CC[C@@H]2CN(CCc1ccccc1F)S(=O)(=O)Cc1cccnc1 [Example 124, N-[2-(2-fluorophenyl)ethyl]-N-{[(4αR,5S)-1-(4-fluorophenyl)-4α-methyl-1,4,4α,5,6,7-hexahydrocyclopenta[f]indazol-5-yl]methyl}-1-pyridin-3-ylmethanesulfonamide] | 99.2 | 218 | 1.3 | 251 | 100 | > 5
COc1ccccc1CCN(C[C@H]1CCC2=Cc3c(cnn3-c3ccc(F)cc3)C[C@@]21C)S(=O)(=O)Cc1cccnc1 [Example 125, N-{[(4αR,5S)-1-(4-fluorophenyl)-4α-methyl-1,4,4α,5,6,7-hexahydrocyclopenta[f]indazol-5-yl]methyl}-N-[2-(2-methoxyphenyl)ethyl]-1-pyridin-3-ylmethanesulfonamide] | 21.2 | 508 | 34.1 | 575 | 55.3 | > 5
COc1cccc(CCN(C[C@H]2CCC3=Cc4c(cnn4-c4ccc(F)cc4)C[C@@]32C)S(=O)(=O)CC(F)(F)F)c1 [Example 126, 2,2,2-trifluoro-N-{[(4αR,5S)-1-(4-fluorophenyl)-4α-methyl-1,4,4α,5,6,7-hexahydrocyclopenta[f]indazol-5-yl]methyl}-N-[2-(3-methoxyphenyl)ethyl]ethanesulfonamide] | 78.2 | 227 | 11.7 | 233 | 90 | > 5
COc1ccc(CCN(C[C@H]2CCC3=Cc4c(cnn4-c4ccc(F)cc4)C[C@@]32C)S(=O)(=O)CC(F)(F)F)cc1 [Example 127, 2,2,2-trifluoro-N-{[(4αR,5S)-1-(4-fluorophenyl)-4α-methyl-1,4,4α,5,6,7-hexahydrocyclopenta[f]indazol-5-yl]methyl}-N-[2-(4-methoxyphenyl)ethyl]ethanesulfonamide] | 67.9 | 232 | 15.1 | 202 | 83 | > 5
C[C@]12Cc3cnn(-c4ccc(F)cc4)c3C=C1CC[C@@H]2CN(CCc1ccccn1)S(=O)(=O)CC(F)(F)F [Example 128, 2,2,2-trifluoro-N-{[(4αR,5S)-1-(4-fluorophenyl)-4α-methyl-1,4,4α,5,6,7-hexahydrocyclopenta[f]indazol-5-yl]methyl}-N-(2-pyridin-2-ylethyl)ethanesulfonamide] | 69.1 | 252 | 19.3 | 324 | 88.4 | > 5
C[C@]12Cc3cnn(-c4ccc(F)cc4)c3C=C1CC[C@@H]2CN(CCc1ccncc1)S(=O)(=O)CC(F)(F)F [Example 129, 2,2,2-trifluoro-N-{[(4αR,5S)-1-(4-fluorophenyl)-4α-methyl-1,4,4α,5,6,7-hexahydrocyclopenta[f]indazol-5-yl]methyl}-N-(2-pyridin-4-ylethyl)ethanesulfonamide] | 67.2 | 948 | 11.9 | 623 | 79.1 | > 5
C[C@]12Cc3cnn(-c4ccc(F)cc4)c3C=C1CC[C@@H]2CN(CCc1ccc(O)cc1)S(=O)(=O)CC(F)(F)F [Example 130, 2,2,2-trifluoro-N-{[(4αR,5S)-1-(4-fluorophenyl)-4α-methyl-1,4,4α,5,6,7-hexahydrocyclopenta[f]indazol-5-yl]methyl}-N-[2-(4-hydroxyphenyl)ethyl]ethanesulfonamide] | 66.1 | 369 | 13.6 | 229 | 79.7 | > 5
C[C@]12Cc3cnn(-c4ccc(F)cc4)c3C=C1CC[C@@H]2CN(CCc1ccccc1O)S(=O)(=O)Cc1cccnc1 [Example 131, N-{[(4αR,5S)-1-(4-fluorophenyl)-4α-methyl-1,4,4α,5,6,7-hexahydrocyclopenta[f]indazol-5-yl]methyl}-N-[2-(2-hydroxyphenyl)ethyl]-1-pyridin-3-ylmethanesulfonamide] | 37.4 | 571 | 22.9 | 437 | 60.3 | > 5
C[C@]12Cc3cnn(-c4ccccc4)c3C=C1CC[C@@H]2CN(CCc1ccccc1F)S(=O)(=O)CC(F)(F)F [Example 137, 2,2,2-trifluoro-N-[2-(2-fluorophenyl)ethyl]-N-{[(4αR,5S)-4α-methyl-1-phenyl-1,4,4α,5,6,7-hexahydrocyclopenta[f]indazol-5-yl]methyl}ethanesulfonamide] | 73.6 | 143 | 14.0 | 324 | 87.6 | > 5
